Here are results for 31 compounds from the Kinase Knowledgebase extract (Sharma et al. 2016).

For assay [1], the target named is CDK2 (UniProt P24941). As to the kind of experiment: Enzyme Assay. Particulars: for inhibition: concentration not given here.
In assay [2] the target is CDK2 (human) (UniProt P24941). Put plainly: Cell-Based Assay. Conditions: sw480.

What is called IC50 is the point on the concentration scale where inhibition reaches its midpoint. What is called inhibition is the share of the control response that was lost under treatment. Read a high inhibition as a response far below the control.

Molecules are shown by their SMILES.

`Cc1nc[nH]c1/C=C1\C(=O)Nc2ccc3[nH]cnc3c21`: the IC50 in assay [1] was less than 3.5 µM. Same read-out and setting: the figure for `COc1cc[nH]c1/C=C1\C(=O)Nc2ccc3[nH]c(NCC4CCCO4)nc3c21` (configuration not stated) is less than 3.5 µM; for `Cc1nc[nH]c1/C=C1\C(=O)Nc2ccc(N)c(N)c21` it is less than 3.5 µM.

In the case of `COc1cc[nH]c1/C=C1\C(=O)Nc2ccc3[nH]c(NCCCCc4ccccc4)nc3c21`, in assay [1], the inhibition is less than 50%. Compound `COc1cc[nH]c1/C=C1\C(=O)Nc2ccc3nc[nH]c3c21` showed an IC50 in assay [1] of less than 3.5 µM.

`Cc1nc[nH]c1/C=C1\C(=O)Nc2ccc([N+](=O)[O-])c(F)c21` displayed an IC50 in assay [1] of less than 3.5 µM. The compound `O=C1Nc2ccc3[nH]c(-c4ccccc4)nc3c2/C1=C/c1ccc[nH]1` showed an IC50 in assay [1] of less than 3.5 µM. In assay [1], `Cc1nc[nH]c1/C=C1\C(=O)Nc2ccc([N+](=O)[O-])c(N)c21` came in with an IC50 of less than 3.5 µM. The same measure, in the same setting: the figure for `COc1cc[nH]c1/C=C1\C(=O)Nc2ccc3[nH]c(CCc4ccc(O)cc4)nc3c21` is less than 3.5 µM; for `COc1cc[nH]c1/C=C1\C(=O)Nc2ccc3[nH]c(Nc4ccc(N(C)C)cc4)nc3c21` it is less than 3.5 µM. In the case of `Cc1nc[nH]c1/C=C1\C(=O)Nc2ccc([N+](=O)[O-])c(N=[N+]=[N-])c21`, the IC50 in assay [1] was less than 3.5 µM.

`COc1cc[nH]c1/C=C1\C(=O)Nc2ccc3[nH]c(C(O)c4ccccc4)nc3c21` (configuration not stated) showed an IC50 in assay [1] of less than 3.5 µM. Consider `COc1cc[nH]c1/C=C1\C(=O)Nc2ccc3[nH]c(-c4ccccc4O)nc3c21`, for which the IC50 in assay [1] is less than 3.5 µM. The same measure, in the same setting: the figure for `COc1cc[nH]c1/C=C1\C(=O)Nc2ccc3[nH]c(NC(C)c4ccccc4)nc3c21` (configuration not stated) is less than 3.5 µM; for `COCCCNc1nc2c3c(ccc2[nH]1)NC(=O)/C3=C\c1[nH]ccc1OC` it is less than 3.5 µM.

In turn, `COc1cc[nH]c1/C=C1\C(=O)Nc2ccc3[nH]c(Nc4cccc(C(C)=O)c4)nc3c21` had an inhibition in assay [1] of less than 50%. With `COc1cc[nH]c1/C=C1\C(=O)Nc2ccc3[nH]c(-c4ccccc4)nc3c21`, in assay [1], the IC50 is less than 3.5 µM. In assay [1], `COc1ccccc1Nc1nc2c3c(ccc2[nH]1)NC(=O)/C3=C\c1[nH]ccc1OC` came in with an inhibition of less than 50%. Compound `COc1cc[nH]c1/C=C1\C(=O)Nc2ccc3nc(Nc4ccc5c(c4)CCC5)[nH]c3c21` had an inhibition in assay [1] of less than 50%. `COc1cc[nH]c1/C=C1\C(=O)Nc2ccc3nc(NCCCc4ccccc4)[nH]c3c21`: the inhibition in assay [1] was less than 50%. On to `COc1cc[nH]c1/C=C1\C(=O)Nc2ccc3[nH]c(C)nc3c21`, for which the IC50 in assay [2] is less than 1 µM; in assay [1], less than 3.5 µM. `COc1cc[nH]c1/C=C1\C(=O)Nc2ccc3nc(NCc4ccc5c(c4)OCO5)[nH]c3c21`: the inhibition in assay [1] is less than 50%.

For `COC(=O)c1ccc(Nc2nc3c4c(ccc3[nH]2)NC(=O)/C4=C\c2[nH]ccc2OC)cc1`, the inhibition in assay [1] was less than 50%.

As for `COc1ccc(Nc2nc3c4c(ccc3[nH]2)NC(=O)/C4=C\c2[nH]ccc2OC)cc1OC`, the inhibition in assay [1] was less than 50%. `COc1ccc(Nc2nc3c4c(ccc3[nH]2)NC(=O)/C4=C\c2[nH]ccc2OC)cc1` returned an inhibition in assay [1] of less than 50%.

The compound `COc1ccc(Cc2nc3c4c(ccc3[nH]2)NC(=O)/C4=C\c2[nH]ccc2OC)cc1` came in with an IC50 in assay [1] of less than 3.5 µM. Regarding `COc1cc[nH]c1/C=C1\C(=O)Nc2ccc3nc(NCc4cccc5ccccc45)[nH]c3c21`, the inhibition in assay [1] is less than 50%. In assay [1], `COc1cc[nH]c1/C=C1\C(=O)Nc2ccc3[nH]c(CCCc4ccccc4)nc3c21` displayed an IC50 of less than 3.5 µM. Regarding `CCOC(=O)c1ccc(Nc2nc3c4c(ccc3[nH]2)NC(=O)/C4=C\c2[nH]ccc2OC)cc1`, in assay [1], the inhibition is less than 50%.

The compound `COc1ccc(CCNc2nc3c4c(ccc3[nH]2)NC(=O)/C4=C\c2[nH]ccc2OC)cc1OC` returned an inhibition in assay [1] of less than 50%.

As to `COc1cc[nH]c1/C=C1\C(=O)Nc2ccc3[nH]c(-c4ccc(C(=O)O)cc4)nc3c21`, in assay [1], the IC50 was less than 3.5 µM.
